The data set in a line: Adverse events and safety laboratory monitoring. It is filed as in vivo, human. The following applies: 50 mg every 6 hours for 9 days. On the procedure: All subjects were instructed to record any adverse effects and to report them to study personnel, and women were advised to keep a record of any abnormal menstrual bleeding. For proper safety monitoring, subjects returned approximately one week (day 19) and three weeks (day 33) after the discontinuation of the study drug for both treatment arms. During this safety visit, serum electrolytes, renal and liver function, and complete blood count were measured, as well as evaluation and treatment for potential treatment-related abnormalities/adverse events.

SMILES strings stand for the structures.

As for `CC#C[C@]1(O)CC[C@H]2[C@@H]3CCC4=CC(=O)CCC4=C3[C@@H](c3ccc(N(C)C)cc3)C[C@@]21C` [Mifepristone, 11beta-[p-(dimethylamino)phenyl]-17alpha-(1-propynl)estra-4,9-dien-17beta-ol-3-one], the Serious adverse events entry is reported as “No serious adverse events”.

These data come from patent publication US20220288091A1, “Method for Improving Insulin Sensitivity” (priority 2019, published 2022).
